Some test systems named below: ACHN renal; CCRF-CEM leukemia; EKVX NSCLC; HCC-2998 colon; NCI-H226 lung; NCI-H522 lung; OVCAR-3 ovarian; PC-3 prostate; SK-MEL-5 melanoma; SNB-19 CNS.
Common to all, as to assay: NCI anticancer screen, dose series, 48 h

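Growth conditions: 96-well plates. Treatment: test compound, 48 hours, 5 concentrations. Analysis: linear interpolation between bracketing concentrations; unreached endpoints set to highest concentration. GI50: concentration for 50% inhibition of growth. TGI denotes the concentration required for complete inhibition of growth.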

As for `COc1cc(N2CCC(N3CCN(C)CC3)CC2)ccc1Nc1ncc(Cl)c(Nc2ccccc2S(=O)(=O)C(C)C)n1`, the GI50 in the assay with ACHN renal is 0.76 µM; in the assay with CCRF-CEM leukemia, 0.424 µM; in the assay with EKVX NSCLC it was 0.489 µM; in the assay on HCC-2998 colon, 1.07 µM; in the assay on NCI-H226 lung, 0.461 µM; in the assay on NCI-H522 lung, 0.525 µM. For the same compound, the GI50 was 2.22 µM in the assay with OVCAR-3 ovarian, 2.16 µM in the assay on PC-3 prostate, 1.37 µM with SK-MEL-5 melanoma and 2.07 µM in the assay on SNB-19 CNS. The TGI with ACHN renal came to 2.61 µM; in the assay on CCRF-CEM leukemia, 5.86 µM; in the assay on EKVX NSCLC it was 11.5 µM; in the assay with HCC-2998 colon it was 2.39 µM; in the assay with NCI-H226 lung, 2.14 µM; with NCI-H522 lung, 2.03 µM. In addition, the TGI with OVCAR-3 ovarian was 6.87 µM; in the assay with PC-3 prostate it was 11.7 µM; in the assay on SK-MEL-5 melanoma, 2.67 µM; with SNB-19 CNS, 12.2 µM.

Regarding `CCN(CC)CC[n+]1cc2cc(OC)c(OC)cc2c2ccc3cc4c(cc3c21)OCO4`, the GI50 is 1.25 µM in the assay on ACHN renal; 0.325 µM with CCRF-CEM leukemia; 0.967 µM in the assay on EKVX NSCLC; 0.725 µM in the assay on HCC-2998 colon; 1.35 µM in the assay with NCI-H226 lung; 0.255 µM in the assay on NCI-H522 lung. In addition, the GI50 in the assay on OVCAR-3 ovarian is 0.96 µM; in the assay with PC-3 prostate it was 0.395 µM; with SK-MEL-5 melanoma it was 1.31 µM; in the assay on SNB-19 CNS it was 0.452 µM. Further, the TGI in the assay with ACHN renal turned out to be 4.07 µM; in the assay on CCRF-CEM leukemia it was 20.1 µM; in the assay on EKVX NSCLC, 4.04 µM; in the assay with HCC-2998 colon it was 2.15 µM; in the assay with NCI-H226 lung, 3.24 µM; with NCI-H522 lung, 1.05 µM. For the same compound, the TGI with OVCAR-3 ovarian worked out at 2.33 µM; in the assay with PC-3 prostate, 2.25 µM; in the assay on SK-MEL-5 melanoma it was 2.61 µM; in the assay with SNB-19 CNS it was 1.77 µM.

With `O=C(O)CCSC(=S)Nc1ccc([N+](=O)[O-])cc1`, the TGI is more than 83 µM in the assay with ACHN renal; more than 68.2 µM in the assay with CCRF-CEM leukemia; more than 100 µM with EKVX NSCLC; more than 100 µM in the assay with HCC-2998 colon; more than 100 µM with NCI-H226 lung; more than 68 µM in the assay on NCI-H522 lung. The TGI was more than 87.8 µM in the assay with OVCAR-3 ovarian, more than 100 µM with PC-3 prostate, 34.5 µM in the assay on SK-MEL-5 melanoma and more than 100 µM in the assay with SNB-19 CNS.

As to `C=CCSSc1ncnc2c1ncn2C1OC(CO)C(O)C1O` (centres undefined), the GI50 with ACHN renal was 3.34 µM; in the assay on CCRF-CEM leukemia it was 0.46 µM; with EKVX NSCLC it was 69.3 µM; with HCC-2998 colon, 3.06 µM; with NCI-H226 lung, 4.14 µM; in the assay with NCI-H522 lung, 1.34 µM. For the same compound, the GI50 in the assay on OVCAR-3 ovarian was 0.829 µM; in the assay with PC-3 prostate, 2.28 µM; with SK-MEL-5 melanoma it was 3.43 µM; in the assay with SNB-19 CNS, more than 55.7 µM. In addition, the TGI with ACHN renal is more than 100 µM; with CCRF-CEM leukemia, 4.5 µM; with EKVX NSCLC it was more than 100 µM; with HCC-2998 colon it was 60 µM; with NCI-H226 lung, more than 100 µM; in the assay on NCI-H522 lung it was 10.7 µM. Besides, the TGI in the assay on OVCAR-3 ovarian is more than 32.7 µM; in the assay with PC-3 prostate, more than 22.4 µM; in the assay on SK-MEL-5 melanoma it was more than 50.7 µM; in the assay with SNB-19 CNS, more than 100 µM.

For the compound `O=[N+]([O-])c1cc2c(c([N+](=O)[O-])c1)Nc1ccccc1O2`, the GI50 is 6.97 µM in the assay with ACHN renal; 13.2 µM with CCRF-CEM leukemia; 4.4 µM in the assay with EKVX NSCLC; 7.75 µM with HCC-2998 colon; 5.97 µM in the assay with NCI-H226 lung; 2.78 µM in the assay with NCI-H522 lung. Besides, the GI50 in the assay with OVCAR-3 ovarian was 3.69 µM; with PC-3 prostate it was 4.12 µM; in the assay on SK-MEL-5 melanoma, 3.81 µM; with SNB-19 CNS it was 6.33 µM. For the same compound, the TGI was 76.2 µM in the assay on ACHN renal; more than 100 µM with CCRF-CEM leukemia; 51.7 µM with EKVX NSCLC; more than 100 µM in the assay on HCC-2998 colon; more than 100 µM with NCI-H226 lung; 31.4 µM in the assay on NCI-H522 lung. The TGI in the assay on OVCAR-3 ovarian is more than 100 µM; in the assay on PC-3 prostate it was 34 µM; in the assay with SK-MEL-5 melanoma, 21.6 µM; with SNB-19 CNS, more than 100 µM.

With `Cc1cc(N(CCOS(C)(=O)=O)CCOS(C)(=O)=O)ccc1C=Nc1ccc(-c2csc(-c3ccc(Br)cc3)n2)cc1`, the TGI is 13.8 µM in the assay with ACHN renal; more than 100 µM with CCRF-CEM leukemia; 37.7 µM in the assay with EKVX NSCLC; 31.8 µM with HCC-2998 colon; 62.3 µM in the assay on NCI-H226 lung; 1.68 µM in the assay with NCI-H522 lung. Moreover, the TGI in the assay on OVCAR-3 ovarian was 44.3 µM; in the assay on PC-3 prostate, 86.8 µM; in the assay with SK-MEL-5 melanoma, 34.1 µM; in the assay with SNB-19 CNS, more than 88.1 µM.

Take `Cc1cc2nc(C(Cl)Cl)nc(-c3ccccc3)n2n1`: the GI50 with ACHN renal is 1.87 µM; in the assay on CCRF-CEM leukemia, 25.8 µM; in the assay on EKVX NSCLC, 3.72 µM; in the assay with HCC-2998 colon, 1.79 µM; in the assay on NCI-H226 lung, more than 100 µM; with NCI-H522 lung, 4.27 µM. Also, the GI50 was 2.11 µM with OVCAR-3 ovarian, 4.77 µM with PC-3 prostate, 39.3 µM in the assay on SK-MEL-5 melanoma and 4.04 µM in the assay with SNB-19 CNS. In addition, the TGI with ACHN renal was 5.12 µM; in the assay with CCRF-CEM leukemia it was more than 100 µM; in the assay on EKVX NSCLC, 20.3 µM; in the assay with HCC-2998 colon, 3.49 µM; with NCI-H226 lung, more than 100 µM; in the assay with NCI-H522 lung it was more than 100 µM. In addition, the TGI in the assay on OVCAR-3 ovarian is 4.53 µM; with PC-3 prostate, 37.9 µM; in the assay on SK-MEL-5 melanoma it was more than 100 µM; in the assay on SNB-19 CNS it was 28 µM.

For the compound `C[C@@H]1OCC2(CCN(c3cnc(Sc4ccnc(N)c4Cl)c(N)n3)CC2)[C@@H]1N`, the GI50 in the assay with ACHN renal was 4.71 µM; in the assay on CCRF-CEM leukemia, more than 95.6 µM; in the assay with EKVX NSCLC, 0.573 µM; with HCC-2998 colon, more than 100 µM; in the assay with NCI-H522 lung, 7.98 µM; in the assay with OVCAR-3 ovarian, more than 100 µM. The GI50 is more than 100 µM in the assay with PC-3 prostate, more than 93.3 µM in the assay on SK-MEL-5 melanoma and more than 100 µM in the assay with SNB-19 CNS. Also, the TGI in the assay with ACHN renal, in the assay on CCRF-CEM leukemia, in the assay on EKVX NSCLC, in the assay with HCC-2998 colon, with NCI-H226 lung and with NCI-H522 lung was more than 100 µM throughout. For the same compound, the TGI in the assay with OVCAR-3 ovarian, in the assay with PC-3 prostate, with SK-MEL-5 melanoma and in the assay on SNB-19 CNS was more than 100 µM throughout.

On to `CCCCCC/C=C1\CCC(CN(C)C)C1=O` (centres undefined), for which the TGI turned out to be 22.2 µM in the assay with ACHN renal; 7.21 µM with CCRF-CEM leukemia; 42.3 µM with EKVX NSCLC; 18.3 µM in the assay with HCC-2998 colon; 36.5 µM with NCI-H226 lung; 6.28 µM in the assay on NCI-H522 lung. In addition, the TGI was 17.7 µM in the assay on OVCAR-3 ovarian, 24 µM in the assay with PC-3 prostate, 27.5 µM in the assay with SK-MEL-5 melanoma and 30.8 µM in the assay on SNB-19 CNS.

For the origin of these results see PubChem BioAssay (NCI).
